Laboratory results from US9539260B2, “Dihydro-benzo-oxazine and dihydro-pyrido-oxazine derivatives” (Novartis AG, priority 2012, dated 2017).

Tests used:
[1] = test system: rat B cells derived from whole blood; assay: Determination of rat B cell activation in whole blood (CD86 upregulation after anti-IgM and rIL-4); type: cell-based; conditions: anti-IgM + rIL-4 stimulation, CD86 on CD45RA+ B cells, read-out: RWB/IC50 CD86
Experimental: 2.3 Determination of Rat B Cell Activation
PI3Kδ has been recognized to modulate B cell function when cells are stimulated through the B cell receptor (BCR) (Okkenhaug et al. Science 297:1031 (2002). For assessing the inhibitory property of compounds on B cell activation, the upregulation of activation markers CD86 on rat B cells derived from whole blood is measured after stimulation with anti-IgM and recombinant IL-4. The CD86 molecule (also known as B7-2) is primarily expressed on antigen-presenting cells, including B cells. Resting B cells express CD86 at low levels, but upregulate it following stimulation of e.g. the BCR or IL-4 receptor. CD86 on a B cell interacts with CD28 on T cells. This interaction is required for optimal T cell activation and for the generation of an optimal IgG1 response (Carreno et al. Annu Rev Immunol. 20:29 (2002)).
Whole blood was collected from the abdominal aorta adult male Lewis rats (LEW/HanHsd) oby using a 10 ml syringe with hypodermic needle pre-coated with sodium heparin. Blood was transferred into 50 ml Falcon tubes and the anticoagulant concentration was adjusted to 100 U/ml.
For assessment of the in vitro effects of immunosuppressive drugs, heparinized blood was prediluted to 50% with medium. As medium served DMEM high glucose (Animed cat#1-26F01-I) supplemented with 100 U/ml penicillin, […], 2 mM L-glutamin, 50 mg/ml dextran 40 and 5% fetal calf serum (FCS, Fetaclone I, Gibco #10270-106). Then, 190 μl prediluted blood was spiked with 10 μl of pre-diluted test compound in 96 well U-bottomed microtiter plates (Nunc) resulting in a 3-fold serial dilution with a concentration range from 20 to 0.0003 μM. Control wells were pretreated with DMSO to obtain a final concentration of 0.5% DMSO. Cultures were set up in duplicates, mixed well by agitation on a plate shaker (Heidolph Titramax 101; 30 sec, speed 900), pipetting up and down and agitated on the plate shaker again. Cultures were incubated at 37° C., 5% CO2 for 1 hr. Then, 20 μl of polyclonal goat anti-rat IgM Ab (Serotec, cat#302001) and 10 μl of diluted recombinant rIL-4 (Immunotools #340085) were added to obtain final concentrations of 30 μg/ml and 5 ng/ml, respectively. Plates were mixed by agitation on a plate shaker as above and incubated for 24 hrs at 37° C., 5% CO2.
After incubation, 15 μl of a 25 mM EDTA solution was added per well and shaken for 15 min to detach adherent cells. For analysis of surface activation markers, samples were then stained with PE-Cy5-labeled anti-ratCD45RA (BD cat#557015) to allow gating on B cells in FACS analysis. In addition, samples were stained with PE-labeled anti-rat CD86 (BD cat#551396). All staining procedures were performed at rt for 30 min in the dark. After incubation, samples were transferred to 96-deep well V-bottomed microtiter plates (Corning #396096) containing 2 ml/well of BD Lysing Solution (BD #349202). After lysis of erythrocytes samples were washed with 2 ml of CellWASH (BD #349524). Data was acquired on an LSRII or FACScalibur flow cytometer (BD Biosciences) using Cellquest Plus or DIVA (version 6.1.1) software, respectively. Lymphocytes were gated in the FSC/SSC dot blot according to size and granularity and further analyzed for expression of CD45RA and activation markers. Data were calculated from dot blots or histograms as percentage of cells positively stained for activation markers within the CD45RA+ population.
The percentage inhibition of B cell activation after exposure to drug was calculated by the following formula: […]
ORIGIN 7 software (OriginLab Corporation, Northampton, Mass.) was used for non-linear regression curve fitting.

PI3K delta = PI3K delta (Homo sapiens (Human), UniProt O00329); assay: Enzymatic PI3K delta isoform inhibition (lipid kinase activity, Kinase-Glo luminescence); type: biochemical; conditions: Enzymatic assay
PI3K delta, sequence (O00329 other isoform, or with tags, fused parts or gaps linker GGGGGG): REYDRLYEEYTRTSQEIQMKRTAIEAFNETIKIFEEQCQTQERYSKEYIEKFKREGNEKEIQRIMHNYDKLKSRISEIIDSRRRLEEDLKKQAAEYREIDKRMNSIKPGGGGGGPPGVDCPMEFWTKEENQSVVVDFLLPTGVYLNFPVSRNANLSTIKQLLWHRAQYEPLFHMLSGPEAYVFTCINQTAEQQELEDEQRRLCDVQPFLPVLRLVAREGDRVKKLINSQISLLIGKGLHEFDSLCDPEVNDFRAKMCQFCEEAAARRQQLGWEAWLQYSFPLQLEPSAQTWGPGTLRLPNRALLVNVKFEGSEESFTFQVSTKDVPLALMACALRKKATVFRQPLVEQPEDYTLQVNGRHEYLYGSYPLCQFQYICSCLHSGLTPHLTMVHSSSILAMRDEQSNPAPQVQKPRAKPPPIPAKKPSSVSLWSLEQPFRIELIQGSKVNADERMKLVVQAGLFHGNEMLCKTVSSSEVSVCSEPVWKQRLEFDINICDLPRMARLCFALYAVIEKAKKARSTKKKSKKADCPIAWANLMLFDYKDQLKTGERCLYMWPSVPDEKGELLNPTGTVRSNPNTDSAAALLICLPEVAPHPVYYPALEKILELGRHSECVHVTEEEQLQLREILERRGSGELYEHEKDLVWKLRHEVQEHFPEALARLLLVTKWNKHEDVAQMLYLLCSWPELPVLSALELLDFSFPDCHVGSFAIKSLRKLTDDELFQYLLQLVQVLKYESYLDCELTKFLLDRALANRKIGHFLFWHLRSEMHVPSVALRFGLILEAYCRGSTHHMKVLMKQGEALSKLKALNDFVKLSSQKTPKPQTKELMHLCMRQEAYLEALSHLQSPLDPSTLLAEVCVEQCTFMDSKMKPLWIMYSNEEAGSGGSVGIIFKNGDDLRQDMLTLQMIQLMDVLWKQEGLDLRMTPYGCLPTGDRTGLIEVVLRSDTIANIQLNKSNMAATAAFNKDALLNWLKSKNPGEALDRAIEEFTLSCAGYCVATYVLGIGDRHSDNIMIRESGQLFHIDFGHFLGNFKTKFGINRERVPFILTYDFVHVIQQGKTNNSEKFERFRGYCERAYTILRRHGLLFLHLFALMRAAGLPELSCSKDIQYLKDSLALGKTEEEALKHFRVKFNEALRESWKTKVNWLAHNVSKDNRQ
Summary of the method: (§1)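 IC50s derive from 4-parameter logistic fits of % inhibition across 8 concentrations (usually 10 to 0.003 μM). Lipid kinase reaction: PI3K (10 nM) plus phosphatidylinositol (5 μg/mL) started with 2 μM ATP, stopped near 50% ATP depletion; leftover ATP quantified by Kinase-Glo luminescence.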

[2] = biological target: myristoylated catalytic subunit of human PI3K delta in Rat-1 cells (Homo sapiens (Human), UniProt O00329); assay: PI3K-mediated Akt 1/2 (S473) phosphorylation in Rat-1 cells, PI3K delta; type: cell-based; conditions: Rat-1 cells overexpressing myristoylated human PI3K delta; p-Akt (S473) AlphaScreen SureFire; read-out: Cell PI3Kδ/ IC50
myristoylated catalytic subunit of human PI3K delta in Rat-1 cells, sequence (O00329 whole entry): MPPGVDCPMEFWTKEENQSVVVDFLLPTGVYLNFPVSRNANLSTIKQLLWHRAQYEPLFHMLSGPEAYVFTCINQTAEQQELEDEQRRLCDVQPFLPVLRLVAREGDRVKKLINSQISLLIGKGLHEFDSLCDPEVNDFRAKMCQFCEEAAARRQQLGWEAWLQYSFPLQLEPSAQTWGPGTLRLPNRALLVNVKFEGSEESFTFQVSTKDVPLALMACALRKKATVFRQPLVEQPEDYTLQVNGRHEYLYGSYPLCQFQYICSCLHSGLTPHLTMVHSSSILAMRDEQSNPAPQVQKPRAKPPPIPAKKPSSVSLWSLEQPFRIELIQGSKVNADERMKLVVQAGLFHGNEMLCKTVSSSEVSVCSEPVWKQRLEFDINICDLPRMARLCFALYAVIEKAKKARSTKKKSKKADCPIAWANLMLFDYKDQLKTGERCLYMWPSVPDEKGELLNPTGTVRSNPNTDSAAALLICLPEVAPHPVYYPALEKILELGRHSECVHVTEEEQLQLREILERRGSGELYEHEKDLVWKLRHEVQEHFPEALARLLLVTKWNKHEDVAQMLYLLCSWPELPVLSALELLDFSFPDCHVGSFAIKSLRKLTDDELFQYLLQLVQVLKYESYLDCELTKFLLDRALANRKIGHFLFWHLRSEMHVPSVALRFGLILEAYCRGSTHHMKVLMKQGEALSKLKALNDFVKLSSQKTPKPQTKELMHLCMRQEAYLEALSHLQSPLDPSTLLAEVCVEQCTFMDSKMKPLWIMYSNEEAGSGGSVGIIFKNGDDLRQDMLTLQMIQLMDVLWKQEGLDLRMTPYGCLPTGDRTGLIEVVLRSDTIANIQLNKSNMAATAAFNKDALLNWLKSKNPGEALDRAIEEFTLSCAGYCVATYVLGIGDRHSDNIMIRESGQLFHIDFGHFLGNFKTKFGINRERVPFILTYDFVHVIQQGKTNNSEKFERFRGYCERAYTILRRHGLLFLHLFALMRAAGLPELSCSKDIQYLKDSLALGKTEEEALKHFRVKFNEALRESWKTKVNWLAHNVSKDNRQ
Experimental: 2.1 Phosphoinositide-3 Kinase (PI3K)-Mediated Akt 1/2 (S473) Phosphorylation in Rat-1 Cells
Rat-1 cells stably overexpressing a myristoylated form of the catalytic subunit of human phosphoinositide-3 kinase (PI3K) alpha, beta or delta were plated in 384-well plates at a density of 7500 (PI3K alpha), 6200 (PI3K beta), or 4000 (PI3K delta) cells in 30 ul complete growth medium (Dulbecco's modified Eagle's medium (DMEM high glucose) supplemented with 10% (v/v) fetal bovine serum, 1% (v/v) MEM non essential amino acids, 10 mM HEPES, 2 mM L-glutamine, 10 μg/mL puromycin and 1% (v/v) Penicillin/Streptomycin) and were incubated at […]/5% CO2/95% humidity for 24 h. Compounds were diluted in 384-well compound plates to obtain 8-point serial dilutions for 40 test compounds in 90% DMSO, as well as 4 reference compounds plus 16 high controls and 16 low (inhibited) controls. Predilution plates were prepared by dispensing pipetting 250 nl of compound solutions into 384-well polypropylen plates using a Hummingwell nanoliter dispensor. Compounds were prediluted by the addition of 49.75 ul complete growth medium. 10 ul of prediluted compound solution were transferred to the cell plate using a 384-well pipettor, resulting in a final DMSO concentration of 0.11%.
Cells were incubated for 1 h at […]/5% CO2/95% humidity. The supernatant was removed, the cells were lysed in 20 ul of lysis buffer for AlphaScreen® SureFire® detection.
For detection of p-AKT(Ser473), the SureFire® p-Akt 1/2 (Ser473) Assay Kit (PerkinElmer, U.S.A) was used. 5 ul of cell lysate was transferred to 384-well low volume Proxiplates for detection using a 384-well pipettor. Addition of AlphaScreen® SureFire® reagents was done according to the manufacturer's protocol. First, 5 ul of reaction buffer plus activation buffer mix containing AlphaScreen® acceptor beads was added, the plate was sealed, and incubated on a plate shaker for 2 hours at room temperature. Second, 2 ul of dilution buffer containing AlphaScreen® donor beads was added, and the plate was incubated on plate shaker as above for a further 2 hours. The plate was read on an AlphaScreen® compatible plate reader, using standard AlphaScreen® settings.

PI3K alpha = PI3K alpha (Homo sapiens (Human), UniProt P42336); assay: Enzymatic PI3K alpha isoform inhibition (lipid kinase activity, Kinase-Glo luminescence); type: biochemical; conditions: Enzymatic assay
PI3K alpha, sequence (P42336 other isoform, or with tags, fused parts or gaps): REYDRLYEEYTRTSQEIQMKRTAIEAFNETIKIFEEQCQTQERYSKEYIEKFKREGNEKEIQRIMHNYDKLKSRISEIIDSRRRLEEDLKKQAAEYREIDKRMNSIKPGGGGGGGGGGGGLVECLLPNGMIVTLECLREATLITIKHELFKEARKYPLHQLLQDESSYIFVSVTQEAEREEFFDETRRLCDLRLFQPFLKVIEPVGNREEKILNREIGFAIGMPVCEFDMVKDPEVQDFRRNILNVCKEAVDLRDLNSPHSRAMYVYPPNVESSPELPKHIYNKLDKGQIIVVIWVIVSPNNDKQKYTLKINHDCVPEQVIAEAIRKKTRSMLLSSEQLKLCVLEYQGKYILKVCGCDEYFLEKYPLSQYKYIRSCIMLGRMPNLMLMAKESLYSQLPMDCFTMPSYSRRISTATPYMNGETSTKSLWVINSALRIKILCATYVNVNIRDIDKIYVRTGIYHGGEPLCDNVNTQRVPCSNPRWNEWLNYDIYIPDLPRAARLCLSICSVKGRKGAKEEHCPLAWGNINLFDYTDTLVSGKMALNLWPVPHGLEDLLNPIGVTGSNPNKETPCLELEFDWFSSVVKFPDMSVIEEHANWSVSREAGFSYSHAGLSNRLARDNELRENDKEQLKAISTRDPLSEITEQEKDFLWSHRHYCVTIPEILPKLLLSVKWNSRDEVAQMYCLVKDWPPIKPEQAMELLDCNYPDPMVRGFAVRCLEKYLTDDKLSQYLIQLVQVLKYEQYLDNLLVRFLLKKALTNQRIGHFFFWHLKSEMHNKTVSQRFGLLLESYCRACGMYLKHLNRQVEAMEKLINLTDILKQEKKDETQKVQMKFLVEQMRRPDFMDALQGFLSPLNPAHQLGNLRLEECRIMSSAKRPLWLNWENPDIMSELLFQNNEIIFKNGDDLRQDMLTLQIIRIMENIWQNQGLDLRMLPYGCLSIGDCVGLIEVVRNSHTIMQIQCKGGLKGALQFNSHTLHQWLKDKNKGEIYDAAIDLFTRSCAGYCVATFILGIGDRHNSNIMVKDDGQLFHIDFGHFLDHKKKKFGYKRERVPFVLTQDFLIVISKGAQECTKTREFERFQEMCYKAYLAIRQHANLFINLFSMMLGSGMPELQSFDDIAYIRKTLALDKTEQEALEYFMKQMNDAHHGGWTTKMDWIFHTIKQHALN
Summary of the method: as §1

COc1ncc(N2CCOc3ccc(O[C@H]4CCN(C(=O)C5CCOCC5)C4)cc32)cc1C#N [Example C1, 2-Methoxy-5-{6-[(S)-1-(tetrahydro-pyran-4-carbonyl)-pyrrolidin-3-yloxy]-2,3-dihydro-benzo[1,4]oxazin-4-yl}-nicotinonitrile]
IC50 [1]: 68 nM | IC50 (PI3K delta): 19 nM | IC50 [2]: 81 nM | IC50 (PI3K alpha): 300 nM

Cc1cc(N2CCOc3ccc(O[C@H]4CCN(C(=O)C5CCOCC5)C4)cc32)cnc1S(C)(=O)=O [Example B1, {(S)-3-[4-(6-Methanesulfonyl-5-methyl-pyridin-3-yl)-3,4-dihydro-2H-benzo[1,4]oxazin-6-yloxy]-pyrrolidin-1-yl}-(tetrahydro-pyran-4-yl)-methanone]
IC50 [1]: 29 nM | IC50 (PI3K delta): 14 nM | IC50 [2]: 154 nM | IC50 (PI3K alpha): 390 nM

COc1ncc(N2CCOc3cnc(O[C@H]4CCN(C(=O)C5CCOCC5)C4)cc32)cc1C [Example E3, {(S)-3-[1-(6-Methoxy-5-methyl-pyridin-3-yl]-2,3-dihydro-1H-pyrido[3,4-b][1,4]oxazin-7-yloxy]-pyrrolidin-1-yl}-(tetrahydro-pyran-4-yl)-methanone]
IC50 [1]: 14 nM | IC50 (PI3K delta): < 3 nM | IC50 [2]: 18 nM | IC50 (PI3K alpha): 494 nM

[2H]C1([2H])COc2ccc(O[C@H]3CCN(C(=O)C4CCOCC4)C3)cc2N1c1cnc(OC)c(C)c1 (single isomer, unassigned) [Q]
IC50 [1]: 37 nM | IC50 (PI3K delta): 14 nM | IC50 [2]: 145 nM | IC50 (PI3K alpha): 1140 nM

COc1ncc(N2CCOc3ccc(O[C@H]4CCN(C(=O)c5cn(C)cn5)C4)cc32)cc1C#N [Example D1, (S)-2-methoxy-5-(6-((1-(1-methyl-1H-imidazole-4-carbonyl)pyrrolidin-3-yl)oxy)-2H-benzo[b][1,4]oxazin-4(3H)-yl)nicotinonitrile]
IC50 [1]: 84 nM | IC50 (PI3K delta): 5 nM | IC50 [2]: 147 nM

COc1ncc(N2CCOc3cnc(O[C@H]4CCN(C(=O)c5cn(C)cn5)C4)cc32)cc1C [Example E1, {(S)-3-[1-(6-Methoxy-5-methyl-pyridin-3-yl)-2,3-dihydro-1H-pyrido[3,4-b][1,4]oxazin-7-yloxy]-pyrrolidin-1-yl}-(1-methyl-1H-imidazol-4-yl)-methanone]
IC50 [1]: 78 nM | IC50 (PI3K delta): 4 nM | IC50 [2]: 7 nM | IC50 (PI3K alpha): 98 nM

COc1ncc(N2CCOc3cnc(O[C@H]4CCN(C(=O)C5CCS(=O)(=O)CC5)C4)cc32)cc1C(F)F [Example F7, {(S)-3-[1-(5-Difluoromethyl-6-methoxy-pyridin-3-yl)-2,3-dihydro-1H-pyrido[3,4-b][1,4]oxazin-7-yloxy]-pyrrolidin-1-yl}-(1,1-dioxo-hexahydro-1lambda*6*-thiopyran-4-yl)-methanone]
IC50 [1]: 40 nM | IC50 (PI3K delta): < 3 nM | IC50 [2]: 18 nM | IC50 (PI3K alpha): 71 nM

COc1ncc(N2CCOc3ccc(O[C@H]4CCN(C(=O)C5CCOCC5)C4)cc32)cc1C [Example A1, (S)-(3-((4-(6-methoxy-5-methylpyridin-3-yl)-3,4-dihydro-2H-benzo[b][1,4]oxazin-6-yl)oxy)pyrrolidin-1-yl)(tetrahydro-2H-pyran-4-yl)methanone]
IC50 [1]: 37 nM | IC50 (PI3K delta): 6 nM | IC50 [2]: 43 nM | IC50 (PI3K alpha): 322 nM

COc1ncc(N2CCOc3cnc(O[C@H]4CCN(C(=O)C5CCS(=O)(=O)CC5)C4)cc32)cc1C [Example F1, (1,1-Dioxo-hexahydro-1lambda*6*-thiopyran-4-yl)-{(S)-3-[1-(6-methoxy-5-methyl-pyridin-3-yl)-2,3-dihydro-1H-pyrido[3,4-b][1,4]oxazin-7-yloxy]-pyrrolidin-1-yl}-methanone]
IC50 [1]: 7 nM
